# Assays:
# Assay type in all cases: functional
# [1] = Antioxidant activity assessed as H2O2 free radical scavenging activity by spectrophotometric analysis
# [2] = Antioxidant activity assessed as H2O2 free radical scavenging activity at 20 ug/ml after 10 to 15 mins by spectrophotometric analysis
# [3] = Antioxidant activity assessed as H2O2 free radical scavenging activity at 80 ug/ml after 10 to 15 mins by spectrophotometric analysis
# [4] = Antioxidant activity assessed as DPPH free radical scavenging activity at 20 ug/ml after 15 mins by spectrophotometric method
# [5] = Antioxidant activity assessed as H2O2 free radical scavenging activity at 60 ug/ml after 10 to 15 mins by spectrophotometric analysis
# [6] = Antioxidant activity assessed as DPPH free radical scavenging activity at 100 ug/ml after 15 mins by spectrophotometric method
# [7] = Antioxidant activity assessed as H2O2 free radical scavenging activity at 40 ug/ml after 10 to 15 mins by spectrophotometric analysis
# [8] = Antioxidant activity assessed as H2O2 free radical scavenging activity at 100 ug/ml after 10 to 15 mins by spectrophotometric analysis
# [9] = Antioxidant activity assessed as DPPH free radical scavenging activity at 40 ug/ml after 15 mins by spectrophotometric method
# [10] = Antioxidant activity assessed as DPPH free radical scavenging activity measured after 15 mins by spectrophotometric method
# [11] = Antioxidant activity assessed as DPPH free radical scavenging activity at 80 ug/ml after 15 mins by spectrophotometric method
# [12] = Antioxidant activity assessed as DPPH free radical scavenging activity at 60 ug/ml after 15 mins by spectrophotometric method
# Aspergillus flavus [13] = assay: Antifungal activity against Aspergillus flavus assessed as zone of inhibition at 50 ug/ml measured after 24 hrs by well diffusion method; conditions: read-out: IZ
# Candida albicans [14] = assay: Antifungal activity against Candida albicans assessed as zone of inhibition at 50 ug/ml measured after 24 hrs by well diffusion method; conditions: read-out: IZ
# Aspergillus niger [15] = assay: Antifungal activity against Aspergillus niger assessed as zone of inhibition at 100 ug/ml measured after 24 hrs by well diffusion method; conditions: read-out: IZ
# Aspergillus niger [16] = assay: Antifungal activity against Aspergillus niger assessed as zone of inhibition at 50 ug/ml measured after 24 hrs by well diffusion method; conditions: read-out: IZ
# Candida albicans [17] = assay: Antifungal activity against Candida albicans after 24 hrs by well diffusion method
# Candida albicans [18] = assay: Antifungal activity against Candida albicans assessed as zone of inhibition at 25 ug/ml measured after 24 hrs by well diffusion method; conditions: read-out: IZ
# Candida albicans [19] = assay: Antifungal activity against Candida albicans assessed as zone of inhibition at 100 ug/ml measured after 24 hrs by well diffusion method; conditions: read-out: IZ
# Aspergillus flavus [20] = assay: Antifungal activity against Aspergillus flavus after 24 hrs by well diffusion method
# Aspergillus flavus [21] = assay: Antifungal activity against Aspergillus flavus assessed as zone of inhibition at 25 ug/ml measured after 24 hrs by well diffusion method; conditions: read-out: IZ
# Aspergillus niger [22] = assay: Antifungal activity against Aspergillus niger assessed as zone of inhibition at 25 ug/ml measured after 24 hrs by well diffusion method; conditions: read-out: IZ
# Aspergillus flavus [23] = assay: Antifungal activity against Aspergillus flavus assessed as zone of inhibition at 100 ug/ml measured after 24 hrs by well diffusion method; conditions: read-out: IZ
# Aspergillus niger [24] = assay: Antifungal activity against Aspergillus niger after 24 hrs by well diffusion method
Structure (SMILES),IC50 [1] [µg/mL],inhibition [2] [%],inhibition [3] [%],inhibition [4] [%],inhibition [5] [%],inhibition [6] [%],inhibition [7] [%],inhibition [8] [%],inhibition [9] [%],IC50 [10] [µg/mL],inhibition [11] [%],inhibition [12] [%],zone of inhibition at 50 µg/mL (Aspergillus flavus [13]) [mm],zone of inhibition at 50 µg/mL (Candida albicans [14]) [mm],zone of inhibition at 100 µg/mL (Aspergillus niger [15]) [mm],zone of inhibition at 50 µg/mL (Aspergillus niger [16]) [mm],MIC (Candida albicans [17]) [µg/mL],zone of inhibition at 25 µg/mL (Candida albicans [18]) [mm],zone of inhibition at 100 µg/mL (Candida albicans [19]) [mm],zone of inhibition at 25 µg/mL (Aspergillus flavus [21]) [mm],other results
O=C1O[C@H]([C@@H](O)CO)C(O)=C1O [ASCORBIC ACID],26.771,93.4,96,93.4,95.5,97,94.6,97,94.6,26.771,96,95.5,–,–,–,–,–,–,–,–,–
Clc1ccc(-c2csc(N/N=C/c3cccs3)n2)cc1,39.58,82.8,86,94.4,85.2,97,83.2,87.1,96,26.335,96.6,96.1,17,14,8,6,6.25,11,18,8,MIC (Aspergillus flavus [20]): 12.5 µg/mL; zone of inhibition at 25 µg/mL (Aspergillus niger [22]): 6 mm; zone of inhibition at 100 µg/mL (Aspergillus flavus [23]): 20 mm
Fc1ccc(-c2csc(N/N=C/c3cccs3)n2)cc1,35.206,84.2,91.9,92.4,90.3,97,87.5,92.4,93.3,44.12,66.3,94.6,6,14,13,10,6.25,12,15,6,MIC (Aspergillus niger [24]): 25 µg/mL; zone of inhibition at 25 µg/mL (Aspergillus niger [22]): 6 mm; zone of inhibition at 100 µg/mL (Aspergillus flavus [23]): 6 mm
COC(=O)c1cc(-c2csc(N/N=C/c3ccc(Cl)cc3Cl)n2)ccc1OCc1ccccc1,57.873,58.9,71.8,19.2,66.3,56.1,63.5,75,37.2,88.844,45.5,41.9,6,10,6,6,6.25,12,13,6,zone of inhibition at 25 µg/mL (Aspergillus niger [22]): 6 mm; zone of inhibition at 100 µg/mL (Aspergillus flavus [23]): 14 mm
Cc1ccc(-c2csc(N/N=C/c3cccs3)n2)cc1,35.933,79.6,88.4,90.9,84.4,98.1,82.8,91,97,29.837,97.8,97.6,6,14,6,6,6.25,13,15,6,zone of inhibition at 25 µg/mL (Aspergillus niger [22]): 6 mm; zone of inhibition at 100 µg/mL (Aspergillus flavus [23]): 6 mm
OC(Cn1cncn1)(Cn1cncn1)c1ccc(F)cc1F [FLUCONAZOLE],–,–,–,–,–,–,–,–,–,–,–,–,18,22,25,20,< 3.12,15,28,15,MIC (Aspergillus niger [24]): < 3.12 µg/mL; MIC (Aspergillus flavus [20]): < 3.12 µg/mL; zone of inhibition at 25 µg/mL (Aspergillus niger [22]): 14 mm; zone of inhibition at 100 µg/mL (Aspergillus flavus [23]): 20 mm
C(=N\Nc1nc(-c2ccccc2)cs1)/c1cccs1,31.03,87.5,92.4,95.5,91,96.8,90,94,95.8,26.008,97.1,97.6,12,10,10,8,12.5,6,12,8,MIC (Aspergillus niger [24]): 25 µg/mL; zone of inhibition at 25 µg/mL (Aspergillus niger [22]): 6 mm; zone of inhibition at 100 µg/mL (Aspergillus flavus [23]): 15 mm
COc1ccc(-c2csc(N/N=C/c3ccc(Cl)cc3Cl)n2)cc1,40.405,78.1,84.2,65.5,82.8,93.3,79.7,87.5,69.5,34.966,90.6,86.9,6,6,6,6,25,6,7,6,zone of inhibition at 25 µg/mL (Aspergillus niger [22]): 6 mm; zone of inhibition at 100 µg/mL (Aspergillus flavus [23]): 6 mm
Cc1ccc(-c2csc(N/N=C/c3ccc(Cl)cc3Cl)n2)cc1,40.004,76.2,84.2,86,83.2,95.1,80.4,85.3,86.2,30.791,90.7,93.3,10,6,6,6,25,6,8,6,MIC (Aspergillus flavus [20]): 25 µg/mL; zone of inhibition at 25 µg/mL (Aspergillus niger [22]): 6 mm; zone of inhibition at 100 µg/mL (Aspergillus flavus [23]): 16 mm
Fc1ccc(-c2csc(N/N=C/c3ccc(Cl)cc3Cl)n2)cc1,35.539,88.4,94,90.7,92.4,96,90,95.6,93.3,27.139,95.5,94.6,10,11,6,6,6.25,10,13,8,MIC (Aspergillus flavus [20]): 12.5 µg/mL; zone of inhibition at 25 µg/mL (Aspergillus niger [22]): 6 mm; zone of inhibition at 100 µg/mL (Aspergillus flavus [23]): 12 mm
COC(=O)c1cc(-c2csc(N/N=C/c3cccs3)n2)ccc1OCc1ccccc1,29.212,79.6,87.6,94.3,84.4,96.3,82.8,92.4,94.9,28.131,96,95.5,6,8,6,6,25,6,10,6,zone of inhibition at 25 µg/mL (Aspergillus niger [22]): 6 mm; zone of inhibition at 100 µg/mL (Aspergillus flavus [23]): 6 mm
O=C(O)Cc1ccccc1Nc1c(Cl)cccc1Cl,–,–,–,97.1,–,–,–,–,–,–,–,–,–,–,–,–,–,–,–,–,–
